Measured values from patent US11911356B2, “Regulation of mutant TERT by BRAF V600E/map kinase pathway through FOS/GABP in human cancer” (THE JOHNS HOPKINS UNIVERSITY, priority 2017, dated 2024).

How the values were obtained:
ERK phosphorylation = assay: Western blotting of phosphorylated ERK in inhibitor-treated cells; type: cell-based, human; details: 0.5 uM PLX4032, 24 hours
Experimental: FIG. 2A-2G. BRAF V600E/MAPK pathway regulated TERT expression. (FIG. 2A) TERT expression was analyzed by qRT-PCR in cells treated with 0.5 uM PLX4032 or 0.2 uM AZD6244 for 24 hours (upper panel). The corresponding levels of phosphorylated ERK (p-ERK), total ERK (t-ERK), and beta-actin were detected by Western blotting (lower panel). The relative TERT mRNA expression levels were normalized to the DMSO control group. (FIG. 2B) Luciferase reporting assay of TERT promoter activities in K1 cells treated with DMSO or PLX4032 (0.5 uM). (FIG. 2C, 2D) Specific shRNA against BRAF were used to knock down BRAF in thyroid cancer cell lines BCPAP and K1 and melanoma cell line A375. Scramble shRNA was used as control. Cells were then subjected to Western blotting (FIG. 2C) and qRT-PCR (FIG. 2D). (FIG. 2E) Sequencing of the BRAF exon-15 in the parental and heterozygous BRAF-V600E knock-in SW48 cells. BRAF V600E was knocked in on one allele of BRAF by rAAV technology through homologous recombination and Cre recombinase of the Neo cassette. (FIG. 2F) Western blotting analyses of phosphorylation of ERK (p-ERK), total ERK (t-ERK), BRAF, and beta-actin in the parental and BRAF-V600E knock-in SW48 cells. (FIG. 2G) TERT promoter luciferase reporter assay in SW48 cells with/without BRAF V600E knock-in. **P<0.01, ***P<0.001, by 2-tailed Student's t test. P values are for the comparison of the indicated condition with DMSO (FIG. 2B), scramble (FIG. 2D), or BRAF-WT groups (FIG. 2G). All the values represent the average standard deviation (SD) of triplicate samples from a typical experiment. All the experiments were performed three times with similar results. […]
Cells were lysed in the RIPA buffer (#sc-24948; Santa Cruz Biotechnology, Santa Cruz, CA) with protease inhibitor cocktail (#P8340; Sigma-Aldrich) and phosphatase inhibitor cocktail (#P0044; Sigma-Aldrich) and Western blotting analysis was performed as we previously described^54. […] Signals were detected by SuperSignal™ West Pico PLUS Chemiluminescent Substrate (#34579; Thermo Fisher Scientific). […]

[1] = system: K1 cells xenograft tumors; assay: Xenograft tumorigenicity assay; type: in vivo; details: K1 xenograft in nude mice
Text: FIG. 1A-1G. Cooperative role of BRAF V600E and TERT in the oncogenic behavior and tumor growth of cancer cells. Specific shRNA against BRAF and siRNA against TERT were used to knock down BRAF and TERT in the indicated cancer cells, respectively, followed by performance of assays of MTT of cell proliferation (FIG. 1A), transwell cell migration (FIG. 1B), cell invasion (FIG. 1C), and colony formation in soft agar (FIG. 1D) (with representative images shown in the left panel and the average colony numbers in the right panel). Western blotting analysis of TERT and phosphorylation of ERK (p-ERK) was performed for K1 cells (FIG. 1E), from which xenograft tumors were derived to test the role of TERT and BRAF V600E in tumor development and growth (FIG. 1F, FIG. 1G). […] The “Control” in FIG. 1A-1D represented the combination of scramble shRNA and Control siRNA. […] The red horizontal bar on the left of FIG. 1D represents 100 μm; colonies larger than this size were counted and colony numbers are shown on the right of the panel. […]
All animal experiments were approved and performed according to the guidelines of the Institutional Animal Care and Use Committee (IACUC) of Johns Hopkins University. […] Tumor size was measured twice a week on the skin surface of the animal using a caliper and tumor volume was calculated using the formula (width^2×length)/2 as previously described. […]

For `CCCS(=O)(=O)Nc1ccc(F)c(C(=O)c2c[nH]c3ncc(-c4ccc(Cl)cc4)cc23)c1F` [PLX4032], the ERK phosphorylation (ERK phosphorylation; cells harboring BRAF V600E mutation) was “specifically suppressed ERK phosphorylation”, the ERK phosphorylation (ERK phosphorylation; several wild-type BRAF cell lines) was “increase in ERK phosphorylation” and the tumor growth ([1]; 10 mg/kg PLX4032 daily by oral gavage) was “inhibited tumor growth”. The tumor growth ([1]; PLX4032 10 mg/kg daily combined with stable TERT knockdown (shTERT)) was “nearly completely abolished tumor growth”.
